Holding throughout (settings): Homo sapiens, read-out: ED50 (the source's name)
One assay has as its system 1A9. The experiment in a line: Effective dose of compound against replication of 1A9 cell line was evaluated. The format is functional.
The subject of a further assay is A549. The experiment in a line: Effective dose of compound against replication of A549 cell line was evaluated. The format is functional.
The test system of another assay is HCT-8. The experiment in a line: Effective dose of compound against replication of HCT-8 cell line was evaluated. The format is functional.
The next assay concerns HOS. Put plainly: Effective dose of compound against replication of HOS cell line was evaluated. The format is functional.
Assay [1] deals with KB. The experiment in a line: Effective dose of compound against replication of KB cell line was evaluated. The format is functional.
Assay [2] deals with KB. The experiment in a line: Effective dose of compound against replication of KB-Vin cell line was evaluated. The format is functional.
For assay [3], the system named is KB. The experiment in a line: Effective dose of compound against replication of KB/7d cell line was evaluated. The format is functional.
A further assay has as its system MCF7. Put plainly: Effective dose of compound against replication of MCF-7 cell line was evaluated. The format is functional.
Another assay relates to PC-3. Put plainly: Effective dose of compound against replication of PC-3 cell line was evaluated. The format is functional.
The next assay has as its system SK-MEL-2. Put plainly: Effective dose of compound against replication of SK-MEL-2 cell line was evaluated. The format is functional.
A further assay relates to U-87 MG. Put plainly: Effective dose of compound against replication of U87MG cell line was evaluated. The format is functional, U-87MG ATCC.

Bounds are passed on as bounds.

As to `COc1cc([C@@H]2c3cc4c(cc3[C@@H](Nc3ccc([N+](=O)[O-])cc3)[C@H]3COC(=O)[C@H]23)OCO4)cc(OC)c1O`, the EC50 in the assay with 1A9 is less than 1.6 µM; in the assay with A549, less than 0.1 µM; in the assay with HCT-8 it was 1.6 µM; in the assay on HOS, less than 1.6 µM; with KB [1], 3.5 µM; with KB [2], 4.1 µM. Besides, the EC50 came out at 1.5 µM with KB [3]; 24.5 µM with MCF7; 8.9 µM in the assay with PC-3; 3 µM in the assay on SK-MEL-2; 5.5 µM with U-87 MG.

For the compound `COc1cc([C@@H]2c3cc4c(cc3[C@@H](Nc3ccc([N+](=O)[O-])cc3)[C@H]3COS(=O)OC[C@H]23)OCO4)cc(OC)c1O` (some centres not stated), the EC50 in the assay on 1A9 came out at 4.2 µM; with A549, 8 µM; with HCT-8, 10 µM; with HOS it was 6 µM; in the assay with KB [1], 5.1 µM; with KB [2], 7.1 µM. In addition, the EC50 was 2.9 µM with KB [3]; 2.5 µM with MCF7; greater than 20 µM in the assay with PC-3; 7.9 µM in the assay on SK-MEL-2; 8 µM in the assay on U-87 MG.

Values taken from ChEMBL document CHEMBL1147640, “Antitumor agents. Part 232: Synthesis of cyclosulfite podophyllotoxin analogues as novel prototype antitumor agents” (2004).
